Laboratory results: patent US12103915B2, “TEAD inhibitors and methods of uses thereof” (Insilico Medicine IP Limited, priority 2022, dated 2024)

Legend:
[1] = biological target: TEAD3 (Homo sapiens, UniProt Q99594); test: Thermal shift assay TEAD3; assay type: binding
Outline: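 TEAD3 protein at 0.1 mg/ml final melted with Protein Thermal Shift dye on a qPCR instrument. Compounds tested at 10 μM and 1 μM in PBS, final DMSO 0.1%.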

[2] = tested on: NCI-H226 cells; test: Cell growth assay (CellTiter-Glo); assay type: cell-based, human; settings: Homo sapiens, NCI-H226, 168 h, 7 days treatment, CellTiter-Glo luminescence, read-out: H226 CTG IC50
Procedure: Example A: Cell Growth Assay
CellTiter-Glo reagent (CTG reagent, Promega, G7573).
[…] Also seeding an extra plate as Day 0 control measurement. The microplates were incubated at 37° C., 5% CO2 overnight.
Compounds were 3-fold serial diluted in DMSO and final top-concentration was […], 10 points. 0.3% DMSO as vehicle control. In addition, […] of CTG reagent was added into the extra plate and incubated at room temperature for 30 minutes and detected luminescence signals as Day 0 control by using EnVision (PerkinElmer, 2104 Mutilabel Reader).
Incubated other compounds treated plates at 37° C. for another 7 days and […] of CTG reagent was added into the plates and incubated at room temperature for 30 minutes and detected luminescence signals.
Day 0 luminescence signals were used as negative control or baseline. • Signalday0=average luminescence signals of Day 0 control cells. • Signalblank control=average luminescence signals of blank control. • SignalDMSO vehicle control=average luminescence signals of Day 7 DMSO vehicle control cells. • Signalcpds treatment=luminescence signals of Day 7 compounds treatment cells. Inhibition %=1−(Signalcpds treatment−Signalblank control)/(SignalDMSO vehicle control−Signalblank control)*100.
(Inhibitory concentration 50% (IC50) and maximum inhibition % were calculated using dose response curves.

[3] = biological target: TEAD4 (Homo sapiens, UniProt Q15561); test: Thermal shift assay TEAD4; assay type: binding
Sequence of TEAD4 (Q15561 whole entry, species assumed): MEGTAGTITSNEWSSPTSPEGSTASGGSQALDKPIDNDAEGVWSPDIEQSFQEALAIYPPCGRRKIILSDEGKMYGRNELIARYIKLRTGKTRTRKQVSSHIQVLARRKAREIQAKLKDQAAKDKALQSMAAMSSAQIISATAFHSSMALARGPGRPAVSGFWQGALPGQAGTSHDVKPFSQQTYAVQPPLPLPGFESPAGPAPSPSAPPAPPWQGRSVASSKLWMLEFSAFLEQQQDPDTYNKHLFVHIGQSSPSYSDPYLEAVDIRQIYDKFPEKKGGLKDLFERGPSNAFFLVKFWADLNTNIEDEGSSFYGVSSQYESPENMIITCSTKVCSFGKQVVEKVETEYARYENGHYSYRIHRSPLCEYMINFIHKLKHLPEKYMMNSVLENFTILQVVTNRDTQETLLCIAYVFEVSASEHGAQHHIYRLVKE
Outline: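 Protein thermal shift with TEAD4 at 0.1 mg/ml final, Protein Thermal Shift dye, compounds at 10 μM or 1 μM in PBS with 0.1% DMSO final. Melt reactions assembled on ice and run on a qPCR instrument.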

[4] = biological target: TEAD1 (Homo sapiens, UniProt P28347); test: Thermal shift assay TEAD1; assay type: binding
Sequence of TEAD1 (P28347 whole entry, species assumed): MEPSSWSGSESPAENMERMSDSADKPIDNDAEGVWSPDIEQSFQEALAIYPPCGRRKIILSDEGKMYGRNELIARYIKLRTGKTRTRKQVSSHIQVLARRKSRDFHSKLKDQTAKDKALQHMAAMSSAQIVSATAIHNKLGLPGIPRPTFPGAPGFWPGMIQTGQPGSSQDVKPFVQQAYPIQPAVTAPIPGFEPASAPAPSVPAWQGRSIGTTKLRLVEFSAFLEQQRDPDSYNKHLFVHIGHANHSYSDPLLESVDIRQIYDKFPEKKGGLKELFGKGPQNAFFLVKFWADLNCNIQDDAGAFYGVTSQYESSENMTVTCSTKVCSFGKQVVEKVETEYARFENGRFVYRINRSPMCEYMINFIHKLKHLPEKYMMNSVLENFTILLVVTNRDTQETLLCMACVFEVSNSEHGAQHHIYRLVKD
Outline: (§1)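 Compounds tested at 10 μM and 1 μM, 0.1% DMSO final, with TEAD1 at 0.2 mg/ml or TEAD2 at 0.08 mg/ml final. Melting monitored with Protein Thermal Shift dye on a qPCR instrument.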

[5] = biological target: TEAD2 (Homo sapiens, UniProt Q15562); test: Thermal shift assay TEAD2; assay type: binding
Sequence of TEAD2 (Q15562 whole entry, species assumed): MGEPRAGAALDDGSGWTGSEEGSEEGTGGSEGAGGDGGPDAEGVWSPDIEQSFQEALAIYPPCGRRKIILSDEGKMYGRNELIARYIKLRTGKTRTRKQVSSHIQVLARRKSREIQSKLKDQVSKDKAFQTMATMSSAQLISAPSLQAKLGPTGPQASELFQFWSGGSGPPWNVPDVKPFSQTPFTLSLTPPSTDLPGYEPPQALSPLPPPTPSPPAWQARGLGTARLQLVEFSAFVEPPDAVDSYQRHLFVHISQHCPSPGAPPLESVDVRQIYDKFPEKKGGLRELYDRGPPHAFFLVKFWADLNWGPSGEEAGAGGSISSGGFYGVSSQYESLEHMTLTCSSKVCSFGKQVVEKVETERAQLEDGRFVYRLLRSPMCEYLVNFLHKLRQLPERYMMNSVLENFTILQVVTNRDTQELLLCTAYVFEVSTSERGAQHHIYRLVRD
Outline: as §1

Sequence of TEAD3 (Q99594 whole entry, species assumed): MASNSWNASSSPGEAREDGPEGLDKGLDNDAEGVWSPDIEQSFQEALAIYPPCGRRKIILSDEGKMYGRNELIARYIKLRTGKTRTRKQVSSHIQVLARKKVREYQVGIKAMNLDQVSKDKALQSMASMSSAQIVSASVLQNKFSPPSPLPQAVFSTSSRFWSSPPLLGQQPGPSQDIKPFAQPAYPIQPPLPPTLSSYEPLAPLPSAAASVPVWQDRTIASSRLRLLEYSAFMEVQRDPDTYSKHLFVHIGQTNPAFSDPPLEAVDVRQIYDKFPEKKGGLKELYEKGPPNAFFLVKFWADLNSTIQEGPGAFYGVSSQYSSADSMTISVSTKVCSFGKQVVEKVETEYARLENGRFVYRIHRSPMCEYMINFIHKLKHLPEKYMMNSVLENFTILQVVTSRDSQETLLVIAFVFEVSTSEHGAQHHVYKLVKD

Compound | TEAD3 ΔTm [1] [°C] | IC50 [2] [nM] | TEAD4 ΔTm [3] [°C] | TEAD1 ΔTm [4] [°C] | TEAD2 ΔTm [5] [°C]
Cn1cc2cc(Oc3ccc(C(F)(F)F)cc3)cc([C@@H]3C[C@H]3C(=O)NC3(C#N)CC3)c2n1 (single isomer, unassigned) [Example 67] | 1.7 | < 100 | 7.9 | 8.8 | 9.9
C[C@@H](C#N)NC(=O)[C@@H]1C[C@H]1c1cc(Oc2ccc(C(F)(F)F)cc2)cc2cn(C)nc12 (single isomer, unassigned) [Example 69] | 11.6 | < 100 | 12.9 | 10.9 | 13.9
Cn1cc2cc(Oc3ccc(C(F)(F)F)cc3)cc([C@@H]3C[C@H]3C(=O)N3CC(C#N)C3)c2n1 (single isomer, unassigned) [Example 70] | 7.0 | < 100 | 8.6 | 8.4 | 11.7
Cn1cc2cc(Oc3ccc(C(F)(F)F)cc3)cc([C@@H]3C[C@H]3C(=O)NC#N)c2n1 (single isomer, unassigned) [Example 71] | 12.2 | 1000 to 30000 | 12.2 | 11.2 | 13.4
Cn1cc2cc(Oc3ccc(C(F)(F)F)cc3)cc(C3C[C@H]3C(=O)N3CCC[C@@H]3C#N)c2n1 (single isomer, unassigned) [Example 72] | 1.7 | < 100 | 4.7 | 3.5 | 8.6
Cn1cc2cc(Oc3ccc(C(F)(F)F)cc3)cc(C3C[C@H]3C(=O)N3CCC[C@H]3C#N)c2n1 (single isomer, unassigned) [Example 73] | 13.9 | < 100 | 12.1 | 9.5 | 15.1
Cn1cc2cc(Oc3ccc(C(F)(F)F)cc3)cc(C3C[C@H]3C(=O)N3CCC(O)CC3)c2n1 (single isomer, unassigned) [Example 74] | 11.4 | < 100 | 10.2 | 10.7 | 12.9
Cn1cc2cc(Oc3ccc(C(F)(F)F)cc3)cc([C@@H]3C[C@H]3C(=O)N3CC[C@@H](O)[C@H](O)C3)c2n1 (single isomer, unassigned) [Example 75b] | 10.1 | < 100 | 11.6 | 9.3 | 11.9
Cc1cn2cc(Oc3ccc(C(F)(F)F)cc3)cc([C@H]3C[C@@H]3C(=O)N3CC(O)C3)c2n1 (single isomer, unassigned) [Example 85b] | 1.8 | < 100 | 4.4 | 7.4 | 7.1
Cn1cc2cc(N3CCC4(CCCC4)CC3)cc(C3C[C@H]3C(=O)N3C[C@H](O)[C@@H](O)C3)c2n1 (single isomer, unassigned) [Example 86] | 0.2 | 1000 to 30000 | 2.6 | 2.6 | 2.7
Cn1cc2cc(Oc3ccc(C(F)(F)F)cn3)cc([C@H]3C[C@@H]3C(=O)N3CC(O)C3)c2n1 (single isomer, unassigned) [Example 88b] | 2.6 | < 100 | 9.7 | 7.6 | 10.9
Cn1cc2cc(Oc3ccc(C(F)F)cc3)cc([C@H]3C[C@@H]3C(=O)N3CC(O)C3)c2n1 (single isomer, unassigned) [Example 89b] | 8.8 | < 100 | 11.4 | 8.6 | 12.4
Cn1cc2cc(Oc3ccc(F)c(F)c3)cc([C@H]3C[C@@H]3C(=O)N3CC(O)C3)c2n1 (single isomer, unassigned) [Example 90b] | 2.9 | < 100 | 10.3 | 7.7 | 10.5
Cn1cc2cc(Oc3ccc(C(F)(F)F)cc3)cc(C3C[C@H]3C(=O)NC3CC4(CC(O)C4)C3)c2n1 (single isomer, unassigned) [Example 95] | 6.4 | < 100 | 9.4 | 9.4 | 10.6
Cn1cc2cc(Oc3ccc(C(F)(F)F)cc3)cc(C3C[C@H]3C(=O)N3C4COCC3C4)c2n1 (single isomer, unassigned) [Example 96] | 12.3 | < 100 | 12.6 | 10.5 | 13.1
Cn1cc2cc(Oc3ccc(C(F)(F)F)cc3)cc(C3C[C@H]3C(=O)N3CC4(CC(O)C4)C3)c2n1 (single isomer, unassigned) [Example 97] | 7.6 | < 100 | 10.2 | 9.9 | 9.0
Cn1cc2cc(Oc3ccc(C(F)(F)F)cc3)cc(C3C[C@H]3C(=O)N3CCC4(COC4)C3)c2n1 (single isomer, unassigned) [Example 98] | 0 | 100 to 500 | 8.4 | 7.3 | 9.2
Cn1cc2cc(Oc3ccc(C(F)(F)F)cc3)cc(C3C[C@H]3C(=O)NC34CC(O)(C3)C4)c2n1 (single isomer, unassigned) [Example 102] | 2.1 | < 100 | 8.7 | 7.3 | 9.1
Cn1cc2cc(Oc3ccc(C(F)(F)F)cc3)cc([C@@H]3C[C@H]3C(=O)N3CC4CC3CC4O)c2n1 (single isomer, unassigned) [Example 103a] | 3.0 | < 100 | 9.0 | 6.4 | 9.9
Cn1cc2cc(Oc3ccc(C(F)(F)F)cc3)cc([C@H]3C[C@@H]3C(=O)N3CC4CC3CC4O)c2n1 (single isomer, unassigned) [Example 103b] | 10.4 | < 100 | 11.8 | 9.2 | 12.0
Cn1cc2cc(Oc3ccc(C(F)(F)F)cc3)cc(C3C[C@H]3C(=O)N3C[C@H]4C[C@@H]3C[C@@H]4O)c2n1 (single isomer, unassigned) [Example 103c] | 9.4 | < 100 | 10.7 | 9.2 | 11.1
Cn1cc2cc(Oc3ccc(C(F)(F)F)cc3)cc(C3C[C@H]3C(=O)N3C[C@@H]4C[C@H]3C[C@H]4O)c2n1 (single isomer, unassigned) [Example 103d] | 10.3 | < 100 | 11.2 | 9.5 | 11.6
Cn1cc2cc(Oc3ccc(C(F)(F)F)cc3)cc(C3C[C@H]3C(=O)N3C[C@H]4C[C@@H]3C[C@H]4O)c2n1 (single isomer, unassigned) [Example 103e] | 1.8 | < 100 | 8.7 | 6.9 | 9.1
Cn1cc2cc(Oc3ccc(C(F)(F)F)cc3)cc(C3C[C@H]3C(=O)N3[C@@H]4CC[C@H]3C[C@@H](O)C4)c2n1 (single isomer, unassigned) [Example 104] | 2.0 | < 100 | 8.1 | 6.5 | 9.0
Cn1cc2cc(Oc3ccc(C(F)(F)F)cc3)cc(C3C[C@H]3C(=O)N3[C@@H]4CC[C@H]3C[C@H](O)C4)c2n1 (single isomer, unassigned) [Example 105] | 2.2 | < 100 | 8.1 | 6.8 | 8.2
Cn1cc2nc(Oc3ccc(C(F)(F)F)cc3)cc([C@H]3C[C@@H]3C(=O)N3CC(O)C3)c2n1 (single isomer, unassigned) [Example 108b] | 8.8 | < 100 | 8.3 | 7.9 | 9.1
